Converted amounts (≈) assume the structure as drawn.
Settings: for aqueous solubility: pH 6.8

Compound `Fc1cccc(CCNCc2cc(-c3ccccc3)cn3nnnc23)c1` has an MDR1-MDCK efflux ratio of 0.71, an intrinsic clearance, human liver microsomes of 190 mL/min/kg and an intrinsic clearance, rat liver microsomes of 1720 mL/min/kg. It also gave an aqueous solubility of 13.7 µg/mL (≈ 39.5 µM).
With `Nc1ccc2c(c1)ncn2CCc1ccccc1` the MDR1-MDCK efflux ratio was 0.701, the intrinsic clearance, human liver microsomes was at most 4.74 mL/min/kg and the intrinsic clearance, rat liver microsomes was 28.1 mL/min/kg. It also gave an aqueous solubility of 38.4 µg/mL (≈ 162 µM).
`CC(=O)c1ccc(OCCCCN2CCCC2)cc1` showed an MDR1-MDCK efflux ratio of 0.895, an intrinsic clearance, human liver microsomes of at most 4.74 mL/min/kg and an intrinsic clearance, rat liver microsomes of 453 mL/min/kg. The aqueous solubility was 36.3 µg/mL (≈ 139 µM).
With `Fc1cc(Br)ccc1CNCc1ccccn1` the MDR1-MDCK efflux ratio was 12, the intrinsic clearance, human liver microsomes was 26.5 mL/min/kg and the intrinsic clearance, rat liver microsomes was 445 mL/min/kg.
For `CN1CCN(c2oc(-c3cccc4ccccc34)nc2C#N)CC1`, the MDR1-MDCK efflux ratio was 0.363, the intrinsic clearance, human liver microsomes was 94.3 mL/min/kg and the intrinsic clearance, rat liver microsomes was 1600 mL/min/kg.
Compound `COCC1(C(=O)N(C)Cc2ccc3ccccc3n2)CCC1` has an MDR1-MDCK efflux ratio of 1.14, an intrinsic clearance, human liver microsomes of 59.9 mL/min/kg and an intrinsic clearance, rat liver microsomes of 4180 mL/min/kg.
Compound `CC1(C)CC[C@]2(NC(=O)C(C)(F)F)CC[C@]3(C)[C@H](C(=O)C=C4[C@@]5(C)C=C(C#N)C(=O)C(C)(C)[C@@H]5CC[C@]43C)[C@@H]2C1` has an MDR1-MDCK efflux ratio of 6.31, a fraction unbound, rat plasma of 0.0088 and an intrinsic clearance, human liver microsomes of 76.7 mL/min/kg. The intrinsic clearance, rat liver microsomes was 145 mL/min/kg.
Compound `CC1(C)CC(Oc2ccc(-c3ccc(-c4cn[nH]c4)cc3O)nn2)CC(C)(C)N1` has an aqueous solubility of 12.9 µg/mL (≈ 32.8 µM).
Compound `CC(c1nnc(-c2cccs2)o1)N1CCC(n2c(=O)[nH]c3ccccc32)CC1` (stereo not given) has an MDR1-MDCK efflux ratio of 21.1, an intrinsic clearance, human liver microsomes of 18.1 mL/min/kg and an intrinsic clearance, rat liver microsomes of 273 mL/min/kg. The aqueous solubility was 56.9 µg/mL (≈ 144 µM).
`COCC(=O)Nc1cc(C#N)cn1C(C)(C)C` showed an MDR1-MDCK efflux ratio of 1.29, an intrinsic clearance, human liver microsomes of at most 4.74 mL/min/kg and an intrinsic clearance, rat liver microsomes of 15.3 mL/min/kg.
`c1ccc(-c2c(-c3ccc(OCCN4CCCC4)cc3)[nH]c3ncnc(NCC4SCCS4)c23)cc1` showed an MDR1-MDCK efflux ratio of 25, an intrinsic clearance, human liver microsomes of 80.2 mL/min/kg and an intrinsic clearance, rat liver microsomes of 165 mL/min/kg. The aqueous solubility was 3.72 µg/mL (≈ 7.19 µM).
In the case of `CC(C)(C)c1nccc(NCc2ccncc2)n1`, the MDR1-MDCK efflux ratio was 0.7, the intrinsic clearance, human liver microsomes was 14.1 mL/min/kg and the intrinsic clearance, rat liver microsomes was 748 mL/min/kg. For the same compound, the aqueous solubility was 30.4 µg/mL (≈ 125 µM).
Work on `CN(C)C(=O)c1cncc(N(C)CCN(C)C2CCCC2)n1` yielded an MDR1-MDCK efflux ratio of 20.2, an intrinsic clearance, human liver microsomes of 6.5 mL/min/kg and an intrinsic clearance, rat liver microsomes of 32.3 mL/min/kg.
Work on `O=C1/C(=C2/CCCCCN2)C(Nc2ccccc2)=NN1c1ccccc1` yielded an MDR1-MDCK efflux ratio of 0.737 and an aqueous solubility of 0.54 µg/mL (≈ 1.56 µM).
In the case of `CCOC1CCN(c2ccnc(C(=O)NCc3ccccc3)c2)CC1`, the MDR1-MDCK efflux ratio was 0.488, the intrinsic clearance, human liver microsomes was 18.3 mL/min/kg and the intrinsic clearance, rat liver microsomes was 390 mL/min/kg.
With `NC(=O)Cn1ccc(-c2ccccc2)n1` the MDR1-MDCK efflux ratio was 0.792, the intrinsic clearance, human liver microsomes was at most 4.74 mL/min/kg and the intrinsic clearance, rat liver microsomes was at most 10.7 mL/min/kg. For the same compound, the aqueous solubility was 40.5 µg/mL (≈ 201 µM).
Work on `COc1ccc(CNC(=O)c2sc3nc(C)cc(C)c3c2N)cc1` yielded an MDR1-MDCK efflux ratio of 0.386, a fraction unbound, human plasma of 0.0044 and a fraction unbound, rat plasma of 0.00657. The intrinsic clearance, human liver microsomes was 44.1 mL/min/kg and the intrinsic clearance, rat liver microsomes was 558 mL/min/kg.
In the case of `CCOC(=O)Nc1ccc2c(c1)N(C(=O)CN(CC)CC)c1ccccc1CC2`, the MDR1-MDCK efflux ratio was 21.7, the intrinsic clearance, human liver microsomes was 44.9 mL/min/kg and the intrinsic clearance, rat liver microsomes was 360 mL/min/kg. It also gave an aqueous solubility of 86.4 µg/mL (≈ 218 µM).
`CS(=O)(=O)Cc1cc(-c2ccccc2)on1` showed an aqueous solubility of 31.3 µg/mL (≈ 132 µM).
For `O=C(Nn1cnc2ccccc21)c1cc(Cl)ccc1F`, the MDR1-MDCK efflux ratio was 0.985, the intrinsic clearance, human liver microsomes was at most 4.74 mL/min/kg and the intrinsic clearance, rat liver microsomes was at most 10.7 mL/min/kg. For the same compound, the aqueous solubility was 40.2 µg/mL (≈ 139 µM).
Compound `CCCn1cnnc1Cn1ccnc1-c1ccc2occc2c1` has an MDR1-MDCK efflux ratio of 93.8, an intrinsic clearance, human liver microsomes of at most 4.74 mL/min/kg and an intrinsic clearance, rat liver microsomes of 16.6 mL/min/kg. The aqueous solubility was 28.6 µg/mL (≈ 93.1 µM).
Work on `Cc1nn(CCC#N)c(C)c1Oc1ccccc1O` yielded an MDR1-MDCK efflux ratio of 1.57, an intrinsic clearance, human liver microsomes of at most 4.74 mL/min/kg and an intrinsic clearance, rat liver microsomes of 112 mL/min/kg. The aqueous solubility was 36.7 µg/mL (≈ 143 µM).
With `O=c1[nH]c2ccccc2n1C1CCN(c2ncnc3sccc23)CC1` the intrinsic clearance, human liver microsomes was 35 mL/min/kg, the intrinsic clearance, rat liver microsomes was 339 mL/min/kg and the aqueous solubility was 4.25 µg/mL (≈ 12.1 µM).
With `O=C(NCCc1cn2c(n1)CCCC2)c1ccccn1` the MDR1-MDCK efflux ratio was 12.2, the intrinsic clearance, human liver microsomes was at most 4.74 mL/min/kg and the intrinsic clearance, rat liver microsomes was 26.7 mL/min/kg. For the same compound, the aqueous solubility was 47.6 µg/mL (≈ 176 µM).
In the case of `O=C(/C=C\n1cnc(-c2cc(C(F)(F)F)cc(C(F)(F)F)c2)n1)NNc1ccccn1`, the MDR1-MDCK efflux ratio was 1.08, the intrinsic clearance, human liver microsomes was 13.9 mL/min/kg and the intrinsic clearance, rat liver microsomes was 52.4 mL/min/kg.
In the case of `COc1ccc(-c2nc(NC(C)C)ncc2-c2ncc[nH]2)cc1`, the MDR1-MDCK efflux ratio was 6.39, the intrinsic clearance, human liver microsomes was 26.8 mL/min/kg and the intrinsic clearance, rat liver microsomes was 1160 mL/min/kg.
Compound `Cn1nccc1C(=O)C1CCN(C(=O)c2cccs2)CC1` has an intrinsic clearance, human liver microsomes of 12.2 mL/min/kg and an intrinsic clearance, rat liver microsomes of 97.5 mL/min/kg.
